# Experimental data taken from ChEMBL document CHEMBL1201862, “PubChem BioAssay data set” (2004).
# The source made the active and inactive calls. Rule as the data show it, for most assays here: actives have a measured EC50 and inactives only a lower limit.
# Experiments:
# [1] = viability of PTEN-deleted HCT116 cells – cell-based, HCT116 PTEN knockout, dose response (AID 1047); assay type: functional;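 also: HCT116 colon tumor cells with PTEN knocked out; cells exposed to compound for 60 hours before readout; potency for loss of cell viability measured by luminescence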
# [2] = viability of HCT116 lacking mutant beta-catenin – cell-based, human colon tumor, dose response (AID 1045); assay type: functional;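 also: HCT116 colon tumor cells with beta catenin knocked out; cells exposed to compound for 60 hours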
# [3] = NIH-3T3 fibroblast cytotoxicity, dose response, cytotoxicity control, cell-based, fluorescence, Alamar Blue, secondary assay (AID 2327); assay type: functional;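 also: NIH-3T3 mouse fibroblasts cultured with fluconazole at 8 µg/mL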
# [4] = fluconazole-exposed Candida albicans growth modulators – fluorescence, retest, confirmation (AID 2467); assay type: functional, cell-based
# Fatty acid synthase = Fatty acid synthase (Homo sapiens, UniProt P49327); test: inhibition of human FAS-TE enzyme activity – biochemical, kinetic fluorescence intensity, dose response (AID 624326); assay type: functional;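 also: rate of fluorescence rise from hydrolysis of a fluorogenic O-methyl fluorescein ester substrate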
# [5] = luciferase reporter signal suppression in cells – H4 neuroglioma cells, luminescence, dose response (AID 1990); assay type: functional, cell-based
# [6] = Luminescence Cell-Based Dose Response HTS to Identify Inhibitors of 5'UTR Stem-Loop Driven Prion Protein mRNA Translation in H4 Neuroglioblastoma Cells. [Related pubchem assays: 1827 (Project Summary), 1813 (Primary HTS)]; assay type: functional
# [7] = alpha-synuclein stem-loop luciferase translation blockers – H4 neuroglioma cells, luminescence, confirmation (AID 1988); assay type: functional, cell-based
# cells = assay type: functional
# [8] = Trypanosoma cruzi growth suppression in host cells – NIH3T3 host cells, beta-gal luminescence, confirmation (AID 2044); assay type: functional, cell-based;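 also: intracellular parasites grown in NIH/3T3 mouse fibroblasts as host cells; luminescent beta-galactosidase reporter signal from transgenic T. cruzi replicating inside host cells; inhibitors lower the luminescence signal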
# [9] = NIH3T3 cell viability loss – ATP luminescence, mouse fibroblasts, counter-screen, dose response (AID 2010); assay type: functional, cell-based;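 also: cells exposed to compound for about 90 hours before reading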
# [10] = Luminescence Cell-Based Dose Confirmation HTS to Identify Activators of 5'UTR Stem-Loop Driven Alpha-Synuclein mRNA Translation in H4 Neuroglioblastoma Cells. [Related pubchem assays: 1829 (Project Summary), 1814 (Primary HTS)]; assay type: functional
# [11] = Luminescence Cell-Based Dose Response HTS to Identify Activators of Luciferase Translation or Activity in H4 […] Cells. [Related pubchem assays: 1829 (Project Summary), 1814 (Primary HTS)]; assay type: functional
# H4 = test: Luminescence Cell-Based Dose Response HTS to Identify Activators of 5'UTR Stem-Loop Driven Prion Protein mRNA Translation in H4 Neuroglioblastoma Cells. [Related pubchem assays: 1829 (Project Summary), 1814 (Primary HTS)]; assay type: functional; settings: Homo sapiens
# H9c2 = test: cells; assay type: functional, cell-based; settings: Rattus norvegicus, H9c2, Myocardium;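 also: confirmatory concentration-response retest of ultra-high-throughput screening hits for modulation of myocardial damage; cell death induced by hydrogen peroxide oxidative stress; compound pretreatment for 60 min then peroxide exposure for 2 h; potency is for protecting the cells against peroxide damage rather than for killing them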
# [12] = target: T1, Replicative DNA helicase DnaB (Mycobacterium tuberculosis, UniProt P9WMR3); test: DnaB intein splicing inhibitors, dose response, biochemical, cell-free fluorescence (AID 449749); assay type: functional
# T1 sequence (P9WMR3 whole entry): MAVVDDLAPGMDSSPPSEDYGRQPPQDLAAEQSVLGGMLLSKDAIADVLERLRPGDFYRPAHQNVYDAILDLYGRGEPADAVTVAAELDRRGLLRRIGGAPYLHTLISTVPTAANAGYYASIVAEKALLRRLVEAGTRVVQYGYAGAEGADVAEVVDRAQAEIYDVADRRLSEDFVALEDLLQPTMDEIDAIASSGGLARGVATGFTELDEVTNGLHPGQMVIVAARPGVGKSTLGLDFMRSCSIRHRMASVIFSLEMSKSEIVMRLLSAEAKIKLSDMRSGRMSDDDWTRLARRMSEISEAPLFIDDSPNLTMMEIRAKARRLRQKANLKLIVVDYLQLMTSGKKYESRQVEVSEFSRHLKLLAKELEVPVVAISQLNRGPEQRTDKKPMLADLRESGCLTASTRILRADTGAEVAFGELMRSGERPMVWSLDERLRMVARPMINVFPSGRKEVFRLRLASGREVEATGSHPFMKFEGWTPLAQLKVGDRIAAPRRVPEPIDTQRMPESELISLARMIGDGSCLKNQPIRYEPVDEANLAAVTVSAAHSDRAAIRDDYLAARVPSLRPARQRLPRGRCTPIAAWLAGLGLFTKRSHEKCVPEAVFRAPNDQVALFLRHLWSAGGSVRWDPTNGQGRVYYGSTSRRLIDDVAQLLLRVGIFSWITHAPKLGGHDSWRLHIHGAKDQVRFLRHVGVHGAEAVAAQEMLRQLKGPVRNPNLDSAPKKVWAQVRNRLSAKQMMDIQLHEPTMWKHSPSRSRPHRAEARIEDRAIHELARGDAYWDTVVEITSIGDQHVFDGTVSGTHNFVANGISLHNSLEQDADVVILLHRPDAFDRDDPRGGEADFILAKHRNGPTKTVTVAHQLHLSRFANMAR
# Protein RecA = target: T2, Protein RecA (Mycobacterium tuberculosis, UniProt P9WHJ3); test: Fluorescence Cell-Free Homogeneous Dose Retest to Identify Inhibitors of RecA-Intein Splicing Activity. [Related pubchem assays (depositor defined):AID2097, AID2223, AID489010, AID492950]; assay type: functional
# T2 sequence (P9WHJ3 whole entry): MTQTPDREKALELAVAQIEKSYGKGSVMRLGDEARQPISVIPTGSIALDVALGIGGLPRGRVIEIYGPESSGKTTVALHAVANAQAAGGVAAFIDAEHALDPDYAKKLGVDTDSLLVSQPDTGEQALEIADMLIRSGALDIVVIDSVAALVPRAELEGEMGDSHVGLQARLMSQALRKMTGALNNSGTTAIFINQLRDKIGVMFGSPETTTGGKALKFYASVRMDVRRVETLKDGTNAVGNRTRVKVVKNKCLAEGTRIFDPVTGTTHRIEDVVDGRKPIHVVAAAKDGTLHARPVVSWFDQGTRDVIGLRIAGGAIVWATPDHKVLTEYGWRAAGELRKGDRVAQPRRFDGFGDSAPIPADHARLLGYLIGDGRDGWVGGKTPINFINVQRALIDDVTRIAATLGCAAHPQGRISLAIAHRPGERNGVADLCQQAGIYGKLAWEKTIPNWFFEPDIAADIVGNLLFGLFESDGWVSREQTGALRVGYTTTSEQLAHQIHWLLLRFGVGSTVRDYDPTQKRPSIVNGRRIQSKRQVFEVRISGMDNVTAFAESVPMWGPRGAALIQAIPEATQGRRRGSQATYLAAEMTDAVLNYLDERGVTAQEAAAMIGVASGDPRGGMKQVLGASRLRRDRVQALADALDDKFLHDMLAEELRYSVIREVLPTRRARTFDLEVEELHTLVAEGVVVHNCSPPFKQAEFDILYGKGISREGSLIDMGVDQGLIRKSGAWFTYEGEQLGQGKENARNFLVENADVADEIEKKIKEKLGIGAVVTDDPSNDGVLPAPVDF
# [13] = target: T3, Heat shock factor protein 1 (Mus musculus, UniProt P38532); test: decrease of HSF1-responsive luciferase luminescence – cell-based, NIH3T3, dose retest, confirmation (AID 2382); assay type: functional;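 also: NIH3T3 fibroblasts with HSF1-driven luciferase reporter stressed by proteasome inhibitor MG132; luminescence from HSF1-driven luciferase expression after 8 hours of MG132 stress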
# T3 sequence (P38532 whole entry): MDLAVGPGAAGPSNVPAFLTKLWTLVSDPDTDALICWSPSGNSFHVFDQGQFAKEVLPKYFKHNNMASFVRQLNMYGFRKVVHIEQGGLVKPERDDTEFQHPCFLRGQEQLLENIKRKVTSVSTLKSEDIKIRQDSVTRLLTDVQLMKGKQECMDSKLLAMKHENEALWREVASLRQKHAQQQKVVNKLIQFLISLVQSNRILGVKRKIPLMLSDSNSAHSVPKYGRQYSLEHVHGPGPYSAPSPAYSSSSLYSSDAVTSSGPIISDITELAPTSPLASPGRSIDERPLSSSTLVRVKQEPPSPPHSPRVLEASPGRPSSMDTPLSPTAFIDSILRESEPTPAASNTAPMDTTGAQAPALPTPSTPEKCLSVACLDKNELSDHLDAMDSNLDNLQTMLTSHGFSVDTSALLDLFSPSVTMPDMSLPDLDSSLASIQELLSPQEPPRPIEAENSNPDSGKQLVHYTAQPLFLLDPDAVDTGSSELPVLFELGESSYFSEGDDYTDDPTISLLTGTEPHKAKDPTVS
# [14] = P. falciparum Dd2 growth inhibitors, dose response, SYBR Green, cherry-picked samples (AID 1159567); assay type: functional, cell-based
# Sequence of Fatty acid synthase (P49327 whole entry): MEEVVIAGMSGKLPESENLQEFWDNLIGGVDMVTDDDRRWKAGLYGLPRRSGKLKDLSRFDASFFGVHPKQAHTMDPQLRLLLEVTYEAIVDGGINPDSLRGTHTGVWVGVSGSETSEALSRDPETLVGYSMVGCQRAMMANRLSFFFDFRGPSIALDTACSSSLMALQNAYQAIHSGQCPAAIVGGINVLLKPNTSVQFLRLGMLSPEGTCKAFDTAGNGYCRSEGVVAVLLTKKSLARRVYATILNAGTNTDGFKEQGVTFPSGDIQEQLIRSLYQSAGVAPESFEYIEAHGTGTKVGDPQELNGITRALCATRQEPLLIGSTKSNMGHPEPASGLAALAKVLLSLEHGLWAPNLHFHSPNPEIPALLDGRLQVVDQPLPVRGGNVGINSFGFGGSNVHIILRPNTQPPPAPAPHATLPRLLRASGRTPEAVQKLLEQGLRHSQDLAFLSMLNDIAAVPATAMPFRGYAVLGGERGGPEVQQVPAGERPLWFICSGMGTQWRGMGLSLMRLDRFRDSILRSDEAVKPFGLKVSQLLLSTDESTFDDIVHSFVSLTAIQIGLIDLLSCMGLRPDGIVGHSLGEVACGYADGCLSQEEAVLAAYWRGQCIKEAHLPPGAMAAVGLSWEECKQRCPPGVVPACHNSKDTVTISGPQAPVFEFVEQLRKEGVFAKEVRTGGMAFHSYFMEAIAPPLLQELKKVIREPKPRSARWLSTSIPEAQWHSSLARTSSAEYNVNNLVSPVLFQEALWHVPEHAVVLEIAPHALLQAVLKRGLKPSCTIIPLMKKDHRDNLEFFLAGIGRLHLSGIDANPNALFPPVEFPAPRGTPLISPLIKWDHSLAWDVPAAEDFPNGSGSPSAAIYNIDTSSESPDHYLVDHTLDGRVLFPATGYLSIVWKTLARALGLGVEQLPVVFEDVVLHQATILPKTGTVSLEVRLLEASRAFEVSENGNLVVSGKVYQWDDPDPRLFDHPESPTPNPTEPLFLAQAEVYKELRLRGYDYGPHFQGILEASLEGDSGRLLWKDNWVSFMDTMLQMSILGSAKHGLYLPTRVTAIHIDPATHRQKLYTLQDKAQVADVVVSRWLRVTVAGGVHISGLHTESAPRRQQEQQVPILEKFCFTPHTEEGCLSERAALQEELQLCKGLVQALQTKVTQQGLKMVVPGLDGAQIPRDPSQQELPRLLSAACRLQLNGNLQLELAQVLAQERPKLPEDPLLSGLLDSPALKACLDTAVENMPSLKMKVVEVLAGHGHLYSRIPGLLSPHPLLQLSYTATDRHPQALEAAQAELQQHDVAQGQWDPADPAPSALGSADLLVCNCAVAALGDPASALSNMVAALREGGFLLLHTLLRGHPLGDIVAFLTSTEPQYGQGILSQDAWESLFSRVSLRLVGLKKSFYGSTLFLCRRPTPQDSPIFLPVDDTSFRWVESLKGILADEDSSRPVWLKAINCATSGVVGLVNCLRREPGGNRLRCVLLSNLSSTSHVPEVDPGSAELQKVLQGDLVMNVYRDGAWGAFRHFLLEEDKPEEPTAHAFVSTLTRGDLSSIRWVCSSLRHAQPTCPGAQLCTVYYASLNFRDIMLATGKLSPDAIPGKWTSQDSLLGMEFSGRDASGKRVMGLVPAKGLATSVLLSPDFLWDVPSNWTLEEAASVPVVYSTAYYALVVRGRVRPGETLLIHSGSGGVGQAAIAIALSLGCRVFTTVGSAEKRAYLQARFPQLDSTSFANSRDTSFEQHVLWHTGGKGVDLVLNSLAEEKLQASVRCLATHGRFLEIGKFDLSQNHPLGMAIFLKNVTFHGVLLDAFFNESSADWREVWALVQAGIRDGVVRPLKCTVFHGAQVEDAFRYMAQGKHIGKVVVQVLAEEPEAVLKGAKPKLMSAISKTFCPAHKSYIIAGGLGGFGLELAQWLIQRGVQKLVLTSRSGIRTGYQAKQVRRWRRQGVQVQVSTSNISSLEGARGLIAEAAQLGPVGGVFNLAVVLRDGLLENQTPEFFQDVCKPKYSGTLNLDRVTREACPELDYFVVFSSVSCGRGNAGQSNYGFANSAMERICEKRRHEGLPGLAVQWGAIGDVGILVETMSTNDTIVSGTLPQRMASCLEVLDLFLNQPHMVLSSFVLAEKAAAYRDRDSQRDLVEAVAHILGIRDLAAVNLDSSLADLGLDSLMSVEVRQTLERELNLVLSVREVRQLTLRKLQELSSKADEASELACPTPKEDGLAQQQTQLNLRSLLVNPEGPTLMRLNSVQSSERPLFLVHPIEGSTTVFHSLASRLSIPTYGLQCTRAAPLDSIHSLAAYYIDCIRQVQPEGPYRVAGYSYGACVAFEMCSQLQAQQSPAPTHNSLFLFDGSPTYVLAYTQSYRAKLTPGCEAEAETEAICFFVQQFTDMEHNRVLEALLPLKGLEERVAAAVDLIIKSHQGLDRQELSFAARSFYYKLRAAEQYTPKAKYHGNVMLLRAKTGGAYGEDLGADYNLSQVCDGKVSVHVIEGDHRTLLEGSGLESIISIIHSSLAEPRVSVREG
smiles,measurement,setting,value
COc1ccc(/C=C2\CN(Cc3ccccc3)C/C(=C\c3ccc(OC)cc3)C2=O)cc1,EC50,[1],6.02 µM (active)
same,EC50,[2],5.52 µM (active)
O=C(NN=C(S)Nc1ccc(Cl)cc1)c1ccccc1OC(F)F,EC50,[3],72.6 µM (active)
same,EC50,[4],6.72 µM (active)
O=C(COc1ccc2c(-c3ccccc3)cc(=O)oc2c1)N[C@@H](Cc1c[nH]c2ccc(O)cc12)C(=O)O,IC50,Fatty acid synthase,6.9 µM (active)
O=Nc1c(O)n(Cc2cccc(C(F)(F)F)c2)c2ccccc12,EC50,[3],> 160 µM (inactive)
same,EC50,[4],1.89 µM (active)
O=C1c2ccccc2C(=O)N1CCCCN(C(=O)c1cc2ccccc2oc1=O)c1ccc(F)cc1F,EC50,[5],> 120 µM (not active)
same,EC50,[6],> 120 µM (not active)
same,EC50,[7],> 120 µM (not active)
Cc1cc(C)n2nc(S(=O)(=O)Nc3c(Cl)cccc3Cl)nc2n1,IC50,cells,5.34 µM (active)
Cc1cccc(C2c3[nH]c4ccccc4c3CCN2C(=O)c2cc(-c3cccn3C)[nH]n2)n1 (stereo not drawn),EC50,[3],> 160 µM (inconclusive)
same,EC50,[4],3.22 µM (active)
COc1cccc(NC(=O)c2ccc3nc(C)sc3c2)c1,EC50,[3],> 160 µM (inconclusive)
same,EC50,[4],1.53 µM (active)
Fc1ccc(-c2cc3nc(-c4ccccc4)cc(N4CCN(CCN5CCOCC5)CC4)n3n2)cc1,EC50,[8],4.9 µM (active)
same,EC50,[1],71.2 µM (active)
same,EC50,[9],7.58 µM (active)
same,EC50,[2],85 µM (active)
COc1ccc2nc(O)c(CN(c3ccccc3OC)S(=O)(=O)c3ccccc3)cc2c1,EC50,[10],> 120 µM (not active)
same,EC50,[11],14.3 µM (active)
same,EC50,H4,> 120 µM (not active)
same,IC50,H9c2,13.3 µM (active)
O=Cc1ccc(Sc2nnc(-c3ccccc3)o2)c([N+](=O)[O-])c1,EC50,[1],21.4 µM (active)
same,EC50,[2],18.1 µM (active)
same,AC50,[12],9.51 µM (active)
same,EC50,Protein RecA,5.46 µM (active)
NC(=O)c1nsc(C(=O)N(c2ccccc2)C(C(=O)NCc2ccc(F)cc2)c2ccc(O)cc2)c1N (stereo not drawn),IC50,H9c2,> 79 µM (inactive)
COc1ccc(-c2[nH]nc(C)c2-c2cnn(-c3ccccc3)c2)c(O)c1,EC50,[3],> 160 µM (inactive)
same,EC50,[4],3.77 µM (active)
CCC(=O)c1ccc(OCC(=O)OCC(=O)N2CCc3ccccc3C2)cc1,IC50,cells,17.3 µM (active)
c1ccc2c(c1)CSc1ccccc1N2,EC50,[5],> 120 µM (not active)
same,EC50,[6],> 120 µM (not active)
same,EC50,[7],> 120 µM (not active)
CC(C)OC(=O)/C(C#N)=C/c1cn(Cc2ccccc2)c2ccccc12,EC50,[5],11.5 µM (active)
same,EC50,[6],13.4 µM (active)
same,EC50,[7],7.08 µM (active)
Fc1ccc(-n2cc(-c3ccccc3)c3c(N4CCOCC4)ncnc32)cc1,EC50,[13],2.3 µM (active)
same,IC50,H9c2,> 79 µM (inactive)
CSCCC1NC2(C(=O)Nc3c(C)cc(Cl)cc32)[C@@H]2C(=O)N(C3CCCC3)C(=O)[C@H]12 (stereo partly drawn),EC50,[3],> 150 µM (inactive)
same,EC50,[4],> 38 µM (not active)
CCCn1nnc(NC(=O)COc2ccc(CC)cc2)n1,IC50,cells,27.6 µM (active)
CCc1cc(=O)oc2cc(OC(C)C(=O)NCC(O)c3ccccc3)c(Cl)cc12 (stereo not drawn),EC50,[5],> 120 µM (not active)
same,EC50,[6],> 120 µM (not active)
same,EC50,[7],> 120 µM (not active)
CCOc1ccccc1OCCN1CCC(Cc2ccccc2)CC1,EC50,[3],> 150 µM (inactive)
same,EC50,[4],> 38 µM (not active)
O=C(Nc1nnc(C2=COCCO2)o1)c1ccc(F)cc1,IC50,cells,6.55 µM (active)
O=C(Nc1nnc(SCc2ccccc2Cl)s1)c1cccc([N+](=O)[O-])c1,IC50,Fatty acid synthase,11 µM (active)
CSc1ccccc1NC(=O)c1ccc(N2CC3CC(C2)c2cccc(=O)n2C3)c(NC(=O)c2cccnc2)c1 (stereo not drawn),EC50,[5],> 120 µM (not active)
same,EC50,[6],> 120 µM (not active)
same,EC50,[7],> 120 µM (not active)
CCOc1nc(NCCc2ccc(OC)c(OC)c2)nc(N2CCN(c3ccc(OC)cc3)CC2)n1,EC50,[1],6.42 µM (active)
same,EC50,[2],10.5 µM (active)
COc1cc(C(=O)O/N=C2/C=CC(=O)C(C)=C2C)cc(OC)c1OC,EC50,[1],18.3 µM (active)
same,EC50,[2],19 µM (active)
COc1ccc2c3c(n(C)c2c1)[C@@H](CO)N(C(=O)Nc1ccc(F)cc1)CC31CN(C(=O)c2ccccc2F)C1,AC50,[14],4.35 µM (active)
COc1ccc(-c2ccc([C@@H]3[C@@H](CO)N4CCCCN(C(=O)c5ccc6c(c5)OCO6)C[C@@H]34)cc2)cc1,AC50,[14],5.97 µM (active)
COCC(=O)N1CC2(C1)CN(Cc1ccccc1F)[C@@H](CO)c1[nH]c3cc(OC)ccc3c12,AC50,[14],6.55 µM (active)
COc1ccc(NC(=O)N(C)C[C@@H]2Oc3cc(-c4ccc(C)cc4)ccc3S(=O)(=O)N([C@@H](C)CO)C[C@H]2C)cc1,AC50,[14],5.06 µM (active)
CO[C@@H]1CN(C)C(=O)c2cc(NC(=O)c3ccc(Oc4ccccc4)cc3)ccc2OC[C@H](C)NC[C@@H]1C,AC50,[14],5.99 µM (active)
CO[C@H]1CN(C)C(=O)c2cc(NC(=O)c3ccccc3F)ccc2OC[C@H](C)N(C)C[C@H]1C,AC50,[14],> 39 µM (inactive)
CCS(=O)(=O)N1CCCCN2[C@H](CO)[C@H](c3ccc(-c4cccc(C#N)c4)cc3)[C@@H]2C1,AC50,[14],12.5 µM (active)
